Source: the NIST ThermoML archive (doi:10.1016/j.jct.2013.12.028)
± gives the expanded uncertainty stated by the source.

Columns and labels:
[1] = refractive index (Na D-line) (dimensionless); conditions: 298.15 K; 101.33 kPa; Liquid; Pulfrich refractometry
[2] = 101.33 kPa, Liquid, Vibrating tube method

With `C1CCOC1` [tetrahydrofuran] the refractive index [1] was 1.4048 ± 0.00012, the mass density ([2]; 278.15 K) was 903.68 ± 0.12 kg/m3 and the mass density ([2]; 283.15 K) was 898.309 ± 0.12 kg/m3. The mass density ([2]; 288.15 K) was 892.903 ± 0.12 kg/m3, the mass density ([2]; 293.15 K) was 887.471 ± 0.12 kg/m3 and the mass density ([2]; 298.15 K) was 882.005 ± 0.13 kg/m3. The mass density ([2]; 303.15 K) was 876.513 ± 0.13 kg/m3, the mass density ([2]; 308.15 K) was 870.981 ± 0.13 kg/m3 and the mass density ([2]; 313.15 K) was 865.414 ± 0.13 kg/m3. It also gave a mass density ([2]; 318.15 K) of 859.81 ± 0.13 kg/m3.
